Laboratory results: patent publication US4613355A, “Antibiotic having herbicidal activity” (Satoshi Omura, priority 1983, dated 1986)

What was measured:
Format in all cases: in vivo
Allium fistulosum = assay: Foliage treatment (Example 8); design: key: 0 indicates no effect; 5 indicates complete kill; conditions: Plant No. 27 Allium fistulosum
Description: (§1) Aqueous solutions of Phosalacine (Na salt) at different concentrations were applied at a rate of 1500 liters per hectare to naturally occurring plants or plants which were cultured on plates as shown in the following Table at certain stages of growth. […]

Arctium lappa = assay: Foliage treatment (Example 8); design: key: 0 indicates no effect; 5 indicates complete kill; conditions: Plant No. 30 Arctium lappa, 14 days
Description: as §1

Artemisia princeps = assay: Foliage treatment (Example 8); design: key: 0 indicates no effect; 5 indicates complete kill; conditions: Plant No. 1 Artemisia princeps
Description: as §1

Brassica oleracea = assay: Foliage treatment (Example 8); design: key: 0 indicates no effect; 5 indicates complete kill; conditions: Plant No. 28 Brassica oleracea
Description: as §1

Cucumis sativus = assay: Foliage treatment (Example 8); design: key: 0 indicates no effect; 5 indicates complete kill; conditions: Plant No. 33 Cucumis sativus
Description: as §1

[1] = system: Eleucine indica var. carocana; assay: Foliage treatment (Example 8); design: key: 0 indicates no effect; 5 indicates complete kill; conditions: Plant No. 24 Eleucine indica var. carocana
Description: as §1

Euphonia supina = assay: Foliage treatment (Example 8); design: key: 0 indicates no effect; 5 indicates complete kill; conditions: Plant No. 36 Euphonia supina
Description: as §1

Glycine max = assay: Foliage treatment (Example 8); design: key: 0 indicates no effect; 5 indicates complete kill; conditions: Plant No. 34 Glycine max
Description: as §1

Miscanthus sinensis = assay: Foliage treatment (Example 8); design: key: 0 indicates no effect; 5 indicates complete kill; conditions: Plant No. 5 Miscanthus sinensis
Description: as §1

Oxalis corniculata = assay: Foliage treatment (Example 8); design: key: 0 indicates no effect; 5 indicates complete kill; conditions: Plant No. 35 Oxalis corniculata
Description: as §1

Castanea crenata = assay: Foliage treatment of woody plants (Example 10); design: key: 0 indicates no effect; 5 indicates complete kill; conditions: Plant No. 8 Castanea crenata
Excerpt: (§2) Aqueous solutions containing Phosalacine (Na salt) at different concentrations and 0.1% of octylphenylpolyoxy ethanol as surfactant were applied at a rate of 1500 liter per hectare to woody plants of about 60-70 cm in height. 7 and 14 days after the foliage treatment, damage to the plants was visually assessed on a scale of from 0 to 5 (cf. Example 7).

Larix leptolepis = assay: Foliage treatment of woody plants (Example 10); design: key: 0 indicates no effect; 5 indicates complete kill; conditions: Plant No. 23 Larix leptolepis
Excerpt: as §2

Picea densiflora = assay: Foliage treatment of woody plants (Example 10); design: key: 0 indicates no effect; 5 indicates complete kill; conditions: Plant No. 22 Picea densiflora
Excerpt: as §2

Chamaecyparis obtusa = assay: Foliage treatment of woody plants (Example 10); design: key to damage to the plants, scale 0 to 5: 0 indicates no effect; 5 indicates complete kill; conditions: CH Chamaecyparis obtusa
Excerpt: as §2

Cryptomeria japonica = assay: Foliage treatment of woody plants (Example 10); design: key to damage to the plants, scale 0 to 5: 0 indicates no effect; 5 indicates complete kill; conditions: CP Cryptomeria japonica
Excerpt: as §2

C[C@H](NC(=O)[C@H](C)NC(=O)[C@@H](N)CCP(C)(=O)[O-])C(=O)O.[Na+] [SF, reference compound]
damage to the plants, scale 0 to 5 (Allium fistulosum; 0.1%, 7 days): 3 | damage to the plants, scale 0 to 5 (Allium fistulosum; 0.1%, 14 days): 4 | damage to the plants, scale 0 to 5 (Allium fistulosum; 0.2%, 7 days): 5 | damage to the plants, scale 0 to 5 (Allium fistulosum; 0.2%, 14 days): 5 | damage to the plants, scale 0 to 5 (Arctium lappa; 0.1%): 4 | damage to the plants, scale 0 to 5 (Arctium lappa; 0.2%): 5 | damage to the plants, scale 0 to 5 (Artemisia princeps; 0.1%, 7 days): 3 | damage to the plants, scale 0 to 5 (Artemisia princeps; 0.1%, 14 days): 4 | damage to the plants, scale 0 to 5 (Artemisia princeps; 0.2%, 7 days): 4 | damage to the plants, scale 0 to 5 (Artemisia princeps; 0.2%, 14 days): 5 | damage to the plants, scale 0 to 5 (Brassica oleracea; 0.1%, 7 days): 3 | damage to the plants, scale 0 to 5 (Brassica oleracea; 0.1%, 14 days): 4 | damage to the plants, scale 0 to 5 (Brassica oleracea; 0.2%, 7 days): 4 | damage to the plants, scale 0 to 5 (Brassica oleracea; 0.2%, 14 days): 5 | damage to the plants, scale 0 to 5 (Cucumis sativus; 0.1%, 7 days): 3 | damage to the plants, scale 0 to 5 (Cucumis sativus; 0.1%, 14 days): 4 | damage to the plants, scale 0 to 5 (Cucumis sativus; 0.2%, 7 days): 4 | damage to the plants, scale 0 to 5 (Cucumis sativus; 0.2%, 14 days): 5 | damage to the plants, scale 0 to 5 ([1]; 0.1%, 7 days): 3 | damage to the plants, scale 0 to 5 ([1]; 0.1%, 14 days): 4 | damage to the plants, scale 0 to 5 ([1]; 0.2%, 7 days): 4 | damage to the plants, scale 0 to 5 ([1]; 0.2%, 14 days): 5 | damage to the plants, scale 0 to 5 (Euphonia supina; 0.1%, 7 days): 3 | damage to the plants, scale 0 to 5 (Euphonia supina; 0.1%, 14 days): 4 | damage to the plants, scale 0 to 5 (Euphonia supina; 0.2%, 7 days): 4 | damage to the plants, scale 0 to 5 (Euphonia supina; 0.2%, 14 days): 5 | damage to the plants, scale 0 to 5 (Glycine max; 0.1%, 7 days): 3 | damage to the plants, scale 0 to 5 (Glycine max; 0.1%, 14 days): 4 | damage to the plants, scale 0 to 5 (Glycine max; 0.2%, 7 days): 4 | damage to the plants, scale 0 to 5 (Glycine max; 0.2%, 14 days): 5 | damage to the plants, scale 0 to 5 (Miscanthus sinensis; 0.1%, 7 days): 3 | damage to the plants, scale 0 to 5 (Miscanthus sinensis; 0.1%, 14 days): 4 | damage to the plants, scale 0 to 5 (Miscanthus sinensis; 0.2%, 7 days): 4 | damage to the plants, scale 0 to 5 (Miscanthus sinensis; 0.2%, 14 days): 5 | damage to the plants, scale 0 to 5 (Oxalis corniculata; 0.1%, 7 days): 3 | damage to the plants, scale 0 to 5 (Oxalis corniculata; 0.1%, 14 days): 4 | damage to the plants, scale 0 to 5 (Oxalis corniculata; 0.2%, 7 days): 4 | damage to the plants, scale 0 to 5 (Oxalis corniculata; 0.2%, 14 days): 5 | damage to the plants, scale 0 to 5 (Castanea crenata; 0.125%, 7 days): 5 | damage to the plants, scale 0 to 5 (Castanea crenata; 0.125%, 14 days): 5 | damage to the plants, scale 0 to 5 (Castanea crenata; 0.25%, 7 days): 5 | damage to the plants, scale 0 to 5 (Castanea crenata; 0.25%, 14 days): 5 | damage to the plants, scale 0 to 5 (Castanea crenata; 0.5%, 7 days): 5 | damage to the plants, scale 0 to 5 (Castanea crenata; 0.5%, 14 days): 5 | damage to the plants, scale 0 to 5 (Larix leptolepis; 0.125%, 7 days): 4 | damage to the plants, scale 0 to 5 (Larix leptolepis; 0.125%, 14 days): 5 | damage to the plants, scale 0 to 5 (Larix leptolepis; 0.25%, 7 days): 4 | damage to the plants, scale 0 to 5 (Larix leptolepis; 0.25%, 14 days): 5 | damage to the plants, scale 0 to 5 (Larix leptolepis; 0.5%, 7 days): 4 | damage to the plants, scale 0 to 5 (Larix leptolepis; 0.5%, 14 days): 5 | damage to the plants, scale 0 to 5 (Picea densiflora; 0.125%, 7 days): 4 | damage to the plants, scale 0 to 5 (Picea densiflora; 0.125%, 14 days): 5 | damage to the plants, scale 0 to 5 (Picea densiflora; 0.25%, 7 days): 4 | damage to the plants, scale 0 to 5 (Picea densiflora; 0.25%, 14 days): 5 | damage to the plants, scale 0 to 5 (Picea densiflora; 0.5%, 7 days): 4 | damage to the plants, scale 0 to 5 (Picea densiflora; 0.5%, 14 days): 5 | damage to the plants, scale 0 to 5 (Chamaecyparis obtusa; 0.125%, 7 days): 0 | damage to the plants, scale 0 to 5 (Chamaecyparis obtusa; 0.125%, 14 days): 0 | damage to the plants, scale 0 to 5 (Chamaecyparis obtusa; 0.25%, 7 days): 0 | damage to the plants, scale 0 to 5 (Chamaecyparis obtusa; 0.25%, 14 days): 0 | damage to the plants, scale 0 to 5 (Chamaecyparis obtusa; 0.5%, 7 days): 0 | damage to the plants, scale 0 to 5 (Chamaecyparis obtusa; 0.5%, 14 days): 0 | damage to the plants, scale 0 to 5 (Cryptomeria japonica; 0.125%, 7 days): 0 | damage to the plants, scale 0 to 5 (Cryptomeria japonica; 0.125%, 14 days): 0 | damage to the plants, scale 0 to 5 (Cryptomeria japonica; 0.25%, 7 days): 0 | damage to the plants, scale 0 to 5 (Cryptomeria japonica; 0.25%, 14 days): 1 | damage to the plants, scale 0 to 5 (Cryptomeria japonica; 0.5%, 7 days): 0 | damage to the plants, scale 0 to 5 (Cryptomeria japonica; 0.5%, 14 days): 2
